Results: US8906383B2, “T cell receptor having binding affinity for a peptide-MHC complex and uses thereof” (King's College London, priority 2007, dated 2014)

Columns and labels:
[1] = system: CD8 T cells from HLA-A2+ type 1 diabetic patients; assay: Interferon-gamma cytokine ELISPOT with patient PBMCs; type: cell-based, human; settings: PBMCs of patients with new-onset type 1 diabetes and HLA-A2; peptide 10 μM; FIG. 8a
Method: The following ELISPOT assays were carried out using the methods substantially as described in Arif et al., (2004) J Clin Invest 113: 451-63.
Fresh peripheral blood mononuclear cells (PBMCs) in RPMI 1640 supplemented with antibiotics (TC medium; all Life Technologies) and 10% human AB serum (Harlan SeraLab, Leicestershire, UK) were dispensed into 48-well plates at a density of 2×10^6 cells in 0.5 ml supplemented with peptide to a final concentration of 10 μM and incubated at 37° C., 5% CO2, tilted by 5°. Control wells comprised TC medium containing an equivalent concentration of peptide diluent alone (DMSO). On day +1, 0.5 ml pre-warmed TC medium/10% AB was added and on day +2, non-adherent cells were re-suspended using pre-warmed TC medium/2% AB, washed, brought to a concentration of 1×10^6 cells/300 μl and 100 μl dispensed in triplicate into wells of 96-well ELISA plates (Nunc Maxisorp, Merck, Poole, UK) pre-blocked with 1% BSA in PBS and pre-coated with monoclonal anti-IFN-γ capture antibody (U-Cytech, Utrecht, NL). After capture at 37° C., 5% CO2 for 7 hours, cells were lysed in ice cold water, plates washed in PBS/Tween 20 and spots developed according to the manufacturer's instructions. Plates were dried and spots of 80-120 μm counted in a BioReader 3000 (BioSys, Karben, Germany). […]

soluble HLA-A2 molecules = settings: synthetic peptide; Chang et al., (2003) Tissue Antigens 62: 408-417; cited from earlier work

ALWGPDPAAA [PPI15-24]
CD8 T cell reactivity to PPI peptide by interferon-gamma ELISPOT [1]: demonstrate the presence of CD8 T cells specific for | Capability of being loaded in-vitro by soluble HLA-A2 (soluble HLA-A2 molecules): capable of being loaded in-vitro by soluble HLA-A2 molecules

WGPDPAAA [PPI17-24]
CD8 T cell reactivity to PPI peptide by interferon-gamma ELISPOT [1]: demonstrate the presence of CD8 T cells specific for
